Data on 14 compounds can be found in patent US20140228302A1, “COMPOUNDS, COMPOSITIONS AND METHODS FOR TREATING OR PREVENTING HYPOXIC OR ISCHEMIC INJURY” (FRED HUTCHINSON CANCER RESEARCH CENTER, priority 2010, published 2014).

The nature of data set [1]: Generation of biologically available sulfide in whole rat blood and inhibition by NAEM. The class given is in vitro ADME. As for the experimental part: The chemical nature of biologically available sulfide in blood was probed with the thiol-reactive reagent N-aminoethyl-maleimide (NAEM) which binds to free thiols and perthiols on proteins and blocks them from participating further in thiol-mediated chemical reactions. Biologically available sulfide was generated in blood by adding 1.3 mM bis-N-acetyl-cystine-trisulfide to 2 mL of whole rat blood. Biologically available sulfide was measured by derivatization with mono-bromo-bimane and levels of bis-N-acetyl-cystine-trisulfide in blood were followed by LC/MS/MS.

Data set [2] can be described thus: Comparative solubility data (Table 1). Format: physicochemical. From the text: (§1) This allows formulation in aqueous solution at high concentration, which is important for preparing parenteral dosage forms.
For data set [3], the system named is mouse. Particulars: cited from earlier work.
Data set [4] deals with rat. The settings on record: cited from earlier work.
Data set [5] relates to dog. The settings on record: cited from earlier work.
For data set [6], the system named is mammals. The settings on record: many mammals; cited from earlier work.
In data set [7] the test system is livers of mice, ischemia/reperfusion (I/R) injury. Briefly: Protection from ischemia/reperfusion-induced liver damage. The settings on record: last 5 min of 45 min occlusion, ALT five hours after reperfusion. The class given is in vivo, C57BL/6 mice. As for the experimental part:
C57BL/6 mice were anesthetized with a ketamine/xylazine combination given via intraperitoneal injection. A midline laparotomy was performed to expose the viscera and the stomach and intestines were moved laterally to allow for unimpeded visualization of the liver. A micoaneurysm clip was applied to the hepatic artery and portal vein to create a partial liver ischemia encompassing the medial and left lateral lobes (approximately 70% of the liver). […] The aneurysm clips were removed at 45 minutes to restore hepatic blood flow which was confirmed visually. The abdominal incision was closed using wound clips and animals were recovered in a warmed chamber with 100% oxygen. Five hours after reperfusion, blood was collected by cardiac puncture to measure serum alanine aminotransferase (ALT).

Data set [8] can be described thus: Comparative vehicle data (Table 2). Format: physicochemical.
Description: as §1

Data set [9] is described as follows: Stability of the dosing solution. Format: physicochemical. Particulars: 30 mg/mL dosing solution. As for the experimental part:
In one more exemplary embodiment of the methods of making the pharmaceutical compositions of the invention, a dosing solution of bis-N-acetyl-cystine-trisulfide at 30 mg/mL is prepared by weighing the desired amount of solid bis-N-acetyl-cystine-trisulfide into a clear glass vial and chilling the vial to −20° C. The solvent is prepared by chilling a suitable amount of a mixture of 1 volumes of 0.5N NaOH in saline and 2 volumes of above vehicle solution to between 0° C. and 4° C. One mL of this solvent is added to the vial per 30 mg of bis-N-acetyl-cystine-trisulfide contained and the resulting suspension mixed immediately until the solid is fully dissolved. This dosing solution of bis-N-acetyl-cystine-trisulfide is stable for at least 1.5 hours at room temperature and for at least 24 hours when frozen at −20° C. The dosing solution is warmed to room temperature prior to intravenous injection.
Method: Vehicle solution was prepared by mixing 1 volume of solution B, 4 volumes of solution A, and 36 volumes of saline. The pH of the resulting vehicle solution is about 6. To prepare a bis-N-acetyl-cysteine-trisulfide dosing solution at a concentration of 30 mg/ml and about pH 6, the appropriate amount of bis-N-acetyl-cystine-trisulfide was weighed into a clear glass vial and cooled to −20° C. Solutions B and A were mixed at a 1:2 volume ratio, vortexed, and cooled to 4° C. on ice. […]

The nature of data set [10]: Pharmacokinetics of biologically available blood sulfide and plasma thiosulfate after intravenous administration. The settings on record: rat, IV bolus 16 or 32 mg/kg. Format: in vivo, Sprague Dawley rats. The procedure:
Pharmacokinetic experiments were conducted with groups of two to four animals consisting of 9-10 week old, male Sprague Dawley rats, 276-300 grams (Charles River Laboratories, Wilmington, Mass.) with a jugular vein catheter and a femoral vein catheter. Animals were allowed to acclimate in a temperature and humidity controlled environment for 1-3 days prior to the commencement of experimental procedures. Food and water were provided ad libitum.
A baseline blood sample (˜0.4 mL) was collected from each rat through the jugular vein cannula into a heparin-coated syringe (1 mL volume) fitted with a 23G Luer stub adapter. After sampling, the blood volume was replenished by slowly injecting 0.4 mL of a solution of 50 u/mL heparin in saline through the jugular vein cannula.

Data set [11] is described as follows: Free sulfide in blood measured with sulfide-specific electrode in vena cava. Format: in vivo, CD rats. The settings on record: rat, 20 mg/kg IV over 1 min, monitored 30 min. The text has this:
Male CD rats (350-450 g, Charles River Laboratories) were anesthetized by IV pentobarbital injection and the right jugular vein carefully exposed and dissected away from the surrounding tissue. An amperometric hydrogen sulfide sensor (World Precision Instruments, Sarasota, Fla., Cat. #ISO-H2S-2) was inserted into the jugular and advanced into the vena cava. Sensor current was monitored using a Powerlab 8/30 (ADInstruments, Colorado Springs, Colo.). Once a stable baseline current was attained, the animals received either vehicle (pH matched saline) or bis-N-acetyl-cystine-trisulfide (20 mg/kg) administered over 1 min via a left femoral vein catheter, and sensor current was monitored over 30 min. Changes in current were calibrated against an IK-1001 standard curve generated with the sensor in deoxygenated 50 mM HEPES, 150 mM NaCl, 1 mM DTPA at 37° C. and pH 7.4.

Data set [12] in a line: Maximum tolerated dose, intravenous injection. The settings on record: mouse, in vivo; mice, intravenous injections. From the text:
The absence of free sulfide is reflected in the low toxicity of the sulfide-releasing compounds.

In data set [13] the test system is livers of mice, injury by dGal/LPS. The data set can be described thus: Protection from endotoxin (dGal/LPS)-induced liver damage. The class given is in vivo, C57BL/6 mice. The procedure: Male C57BL/6 mice, (22 to 24 g, Charles River Laboratories) were acclimated in a temperature and humidity controlled environment for 1-3 days prior to commencement of the experimental procedures. All cages were placed on water heating pads set at 30° C. Liver injury was caused by injecting mice intraperitoneally with 800 mg/kg d-Galactosamine (dGal), followed 30 min later by 100 μg/kg lipopolysaccharide (LPS) (FIG. 4) or with 1000 mg/kg dGal, followed 30 min later by 120 μg/kg LPS (FIG. 5). Bis-N-acetyl-cystine-trisulfide at 20 mg/kg (FIG. 4) or 40 and 60 mg/kg (FIG. 5), or vehicle were injected intraperitoneally 30 min later. Blood was collected by cardiac puncture under isoflurane anesthesia five hours after LPS injection. Serum was prepared and markers of liver injury, alanine aminotransferase (ALT) and aspartate aminotransferase (AST) measured.

The mark [14] stands for this setting: rat blood pretreated with 20 mM NAEM for 30 min.
Where [15] appears, read: 17% HPBCD, aqueous with cosolvent or surfactant or cyclodextrin, read-out: Solubility 17% HPBCD.
[16] abbreviates: 20% PEG400, aqueous with cosolvent or surfactant or cyclodextrin, read-out: Solubility 20% PEG400.
The mark [17] stands for this setting: water, read-out: Solubility Water.

In brackets after ≈: the same amount, converted by molar mass. Entries after “also recorded” stand apart in the source; their conditions may differ. Read-outs that look alike come from different tables or passages of the source.

As to `NCCN1C(=O)C=CC1=O` [NAEM, N-aminoethyl-maleimide], the “Time until consumed in blood” value in data set [1] (20 mM NAEM, preincubation with rat blood) is at most 1 min. In addition, in data set [1] (setting [14]), the “Effect on consumption of bis-N-acetyl-cystine-trisulfide” value was “reduced consumption” and the “Effect on production of biologically available sulfide” value was “almost completely blocked”. Besides, in [1] (rat blood pretreated with 20 mM NAEM for 30 min, listed as N-aminoethyl-maleimide (NAEM)), the “Effect on production of biologically available sulfide” value is “reduces the generation of biologically available sulfide”.

What is called solubility is how much of the substance goes into solution per volume. Turning to `OCCSSSSCc1ccccc1`, the solubility is over 6000 µg/mL in [2] (setting [15]), 110 µg/mL (≈ 416 µM) in data set [2] (setting [16]) and 37 µg/mL (≈ 140 µM) in data set [2] (setting [17]).

Turning to `CC(=O)N[C@@H](CS)C(=O)O` [N-acetyl-cysteine], the “LD50 IV” value in [3] was 3,800 mg/kg; in data set [4], 1,140 mg/kg; in data set [5], 700 mg/kg. Also, in data set [6], the “intravenous LD50” value is at least 300 mg/kg.

Consider `OCC(O)CSSSSCc1ccccc1` (stereo not shown), for which the solubility in data set [2] (setting [15]) amounted to 6600 µg/mL (≈ 22400 µM); in [2] (setting [16]), 230 µg/mL (≈ 781 µM); in [2] (setting [17]), 150 µg/mL (≈ 509 µM).

Regarding `CS(=O)(=O)N[C@@H](CSSSC[C@H](NS(C)(=O)=O)C(=O)O)C(=O)O` [bis-N-methylsulfonyl-cystine-trisulfide, (R,R′)-3,3′-trithiobis-2-(methylsulfonylamido)propanoic acid], the “Water solubility compared to other polysulfides” value in data set [2] (water) was “unexpectedly high water solubility”. The “Liver ischemia/reperfusion injury (ALT)” value was “protected the liver from ischemia/reperfusion injury” in [7] (intravenous bolus 2, 5 or 20 mg/kg) and “protection of the livers” in [7] (intravenous bolus 2, 5 or 20 mg/kg, listed as bis-N-methylsulfonamide-cystine-trisulfide).

As for `CC(=O)N[C@@H](CSSSCCc1ccccc1)C(=O)O`, the solubility in [2] (setting [15]) was determined as 18000 µg/mL (≈ 54300 µM). Moreover, in [2] (water), the “Solubility Water” value was “poor”.

On to `N[C@@H](CSSSC[C@H](N)C(=O)O)C(=O)O`, for which the Solubility in words result in data set [2] (water, 90% PEG400, 45% HPBCD, 45% Captisol, 2% Tween 80, 25% cremophor) is reported as “Not soluble in water, 90% PEG400, 45% HPBCD, 45% Captisol, 2% Tween 80, 25% cremophor”.

Take `C=CCSSCC=C` [Di-allyl di-sulfide]: in [8], the “Preferred Vehicle” value stood at 40% HPBCD/0.1% citric acid.

For orientation: MTD means the largest dose that counted as tolerated. Low readings indicate poorer tolerability, high ones better tolerability. For the compound `CC(=O)N[C@@H](CSSSC[C@H](NC(C)=O)C(=O)O)C(=O)O` [bis-N-acetyl-cystine-trisulfide, (R,R′)-3,3′-trithiobis-2-acetamidopropanoic acid], in data set [2] (water), the “Water solubility compared to other polysulfides” value is “unexpectedly high water solubility”. Moreover, the “Stability of dosing solution at room temperature” value in data set [9] (about pH 6, room temperature) was “at least 1.5 hours”. Moreover, in data set [9] (frozen at −20° C.), the “Stability of dosing solution frozen” value is “at least 24 hours”. The Plasma thiosulfate result in [10] (ion chromatography) is listed as “paralleled blood levels of biologically available sulfide; also recorded: elevation of plasma thiosulfate”. The “Biologically available sulfide in blood” value in data set [10] (mono-bromo-bimane derivatization) is listed as “dose-dependent elevation”. Further, the “Free sulfide in blood” value in data set [11] was “No free sulfide was detectable; also recorded: does not lead to any measurable increase”. The compound also came in with an MTD in data set [12] of about 500 mg/kg. For the same compound, the “Liver injury (serum ALT and AST)” value in data set [13] (20 mg/kg IP bolus 30 min after LPS, 800 mg/kg dGal, 100 μg/kg LPS, vs vehicle) is recorded as “reduced liver injury”. Also, the “Endotoxin-induced liver injury (ALT, AST)” value in [13] (20, 40 and 60 mg/kg IP, blood five hours after LPS (FIGS. 4 and 5)) is given as “protected from endotoxin-induced liver injury”. The “Liver injury (serum ALT)” value in [13] (40 and 60 mg/kg IP bolus 30 min after LPS, 1000 mg/kg dGal, 120 μg/kg LPS, vs vehicle) was “reduced liver injury”. In addition, the “Liver ischemia/reperfusion injury (ALT)” value in data set [7] (intravenous bolus 5, 20 or 60 mg/kg) is “protection of the livers; also recorded: protected the liver from ischemia/reperfusion injury”. For the same compound, in [1] (1.3 mM in 2 mL whole rat blood, LC/MS/MS), the “Time until consumed in blood” value is at most 5 min. The “Generation of biologically available sulfide in blood” value in data set [1] (1.3 mM in whole rat blood, mono-bromo-bimane derivatization) was “generating biologically available sulfide”. In addition, the “Preferred Vehicle” value in [8] is listed as “aqueous”.

For the compound `CS(=O)(=O)N[C@@H](CSSSC[C@H](NS(C)(=O)=O)C(=O)O)C(=O)O` [drawing 50], the solubility in data set [2] (setting [17]) is over 80000 µg/mL.

For the compound `c1ccc(CCSSSCc2cccnc2)cc1`, the figures for the solubility in data set [2] (setting [16]) and in data set [2] (setting [17]) were 310 µg/mL (≈ 1060 µM) and 220 µg/mL (≈ 750 µM), respectively.

With `O=C(O)CCSSSCCC(=O)O`, the solubility in data set [2] (aqueous with cosolvent or surfactant or cyclodextrin, 45% HPBCD (stated in the cell of the 17% HPBCD column), read-out: Solubility 45% HPBCD) is over 20000 µg/mL. Further, in data set [2] (water), the “Solubility Water” value is listed as “poor”.

Take `CC(=O)N[C@@H](CSSSC[C@H](NC(C)=O)C(=O)O)C(=O)O` [drawing 49]: the solubility in [2] (setting [17]) was over 40000 µg/mL.

`COC(=O)[C@H](CSSSCc1ccccc1)NC(C)=O`: the solubility in [2] (setting [16]) came out at 240 µg/mL (≈ 724 µM); in [2] (setting [17]), 100 µg/mL (≈ 302 µM).
